Assay results published in US7910551B2, “Gene differentially expressed in breast and bladder cancer and encoded polypeptides” (University of Rochester, priority 2000, dated 2011).

System: B/C.N cells
Assay: CML assay: peptide sensitization of B/C.N cells to lysis by tumor-specific CTL
Assay type: cell-based, mouse
Conditions: for ability to sensitize B/C.N cells to lysis by tumor-specific CTL: 51Cr release, 4 hours

Row | Substance | ability to sensitize B/C.N cells to lysis by tumor-specific CTL | peptide concentration sufficient to sensitize targets to lysis by CTL (B/C.N targets) | peptide concentration that did not sensitize targets to lysis by CTL (B/C.N targets)
1 | L345-54 (I54): ribosomal protein L3 peptide, amino acids 45-54 with Ile 54 (AFLGYKAGMI) | did not |  | 
2 | L348-56 (I54): ribosomal protein L3 peptide, amino acids 48-56 with Ile 54; target epitope of tumor-specific CTL (GYKAGMIHI) | sensitized B/C.N to lysis | 10 nM | 
3 | L348-56 (T54): wild type ribosomal protein L3 peptide 48-56 with Thr 54 (GYKAGMTHI) [reference compound] | did not |  | > 100 mM
